Values belong to the compound of their own block, whether it stands above or below them. Bridge positions count the residues as written; N and C are the ends. Square brackets hold non-standard residues; d marks the D form. Triazole bridges read from a SMILES are 1,4-linked. Peptide text beside a SMILES is read from it. * marks the point of attachment. Benzoyl(3,5-(OH)2) = O=C(c1cc(O)cc(O)c1)*; Lys(N3) = [N-]=[N+]=NCCCC[C@H](N)C(=O)O; dPhe(4-F) = N[C@H](Cc1ccc(F)cc1)C(=O)O; Nle = CCCC[C@H](N)C(=O)O; Pra = C#CC[C@H](N)C(=O)O
Legend:
Solubility comparison = format: physicochemical
From the text: The MCR agonists in vivo ocular permeability should allow for concentrations well exceeding EC50 values.

[1] = rabbit, in vivo
Method: (§1) Animals were acclimated to the study and, upon completion of the acclimation period, each animal was physically examined for determination of suitability for study participation. […] Animals were uniquely identified by corresponding cage card number and ear tag.
(§2) The designated peptide formulations (35 μL) were administered to the eye of each animal using a calibrated pipette. With the animal manually restrained, the upper eyelid of the eye was gently elevated to expose the cornea. Treatment was then applied to the cornea without contacting the eye with the pipette tip. The animal was then allowed to blink several times while still manually restrained to distribute the applied solution over the eye prior to being returned to the cage. Treatment was administered once daily (QD) or twice daily (BID) with approximately 8 hours between BID doses. Group 1 was administered a single dose, Group 2 received 4 doses, Group 3 received 8 doses. Samples were collected from 3 animals/group 30 min, 1 hr, 2 hr, 4 hr, and 8 hr post-last dose and from 2 animals/group 24 hours post-last dose.
(§3) Following euthanasia, eyes were enucleated, rinsed 2× with fresh ice-cold PBS, and dabbed dry with gauze. Aqueous humor was removed via a 27- or 30-gauge syringe, placed into a pre-weighted 2 mL polypropylene tube, reweighed, and snap frozen by immersion in liquid nitrogen. The cornea was harvested fresh from each eye, placed into a pre-weighted re-enforced 2 mL polypropylene tube, re-weighed and snap frozen in liquid nitrogen. The remaining ocular tissues were discarded. Ocular samples were stored −80° C. All samples were placed into individual vials and weighed. Aqueous humor and cornea samples were collected.

[2] = test system: corneal edema following descemetorhexis without endothethelial keratoplasty (DWEK) surgery in rabbits; experiment: Corneal edema and wound healing after DWEK surgery, topical administration, rabbit; format: in vivo
Method: The objective of the present study was to evaluate the efficacy of the α-MSH peptide analogues in reducing corneal edema following descemetorhexis without endothethelial keratoplasty (DWEK) surgery in rabbits. […] Treatment was administered once (QD) or twice daily (BID) with approximately 6-8 hours between each BID dose.
The rabbits were subjected to a surgical procedure prior to administering topical treatment. The animals received buprenorphine (0.01-0.05 mg/kg SC) and were sedated immediately prior to the procedure with ketamine/xylazine cocktail (20-50/4-10 mg/kg IM). Aseptic precautions were taken for the surgical procedure. […] Sterile eyewash was then used to irrigate the ocular surface of the left eye. […] The animal's corneal epithelium was marked with a circular ring (5 mm) to create a template for resection of the host tissue. […] Descemet's membrane was scored peripherally using a reverse Terry-Sinskey hook, and then Descemet's membrane was peeled from the overlying stroma. Descemet's membrane was removed using forceps. Viscoelastic was removed by Irrigation Aspiration (IA) using balanced salt […] (BSS). One (1) ml of epinephrine 1:1000 and 0.5 ml of heparin (10,000 USP units/ml) was added to each 500 ml of irrigation solution (BSS) to facilitate pupil dilation, control inflammation, and reduce fibrin formation. […]

in vivo = conditions: rabbit, topical or ocular, 35 uL of 5 mg/ml solution per eye per dose
Method: as §1, §2, §3

[3] = test system: iPSC-derived ocular stem cells (ABC-101); experiment: Apo-ONE Homogeneous Caspase-3/7 assay after A23187 challenge of ocular stem cells; format: cell-based
From the text: To assess the cytoprotective properties of the α-MSH peptide analogues in-vitro the present inventors tested their modulatory influence on reactive oxygen species (ROS) production and caspase activation in response to cellular stress. For these in-vitro challenge assays, the present inventors induced cellular stress using tert-Butyl hydroperoxide (TBHP) or calcium ionophore (A23187), compounds which are respectively known to induce oxidative and metabolic stress. Oxidative stress was correlated to an increase of ROS within cells. […] Within the current assays, the present inventors monitored ROS accumulation and subsequent caspase activity as readouts of cellular stress and eventual cell death. […] Both the ROS and caspase readouts were obtained by using commercially available reagent kits, which are based on a fluorescent indicator readout for each metric per the supplier's protocol. […] Readouts are routinely taken at 80 min and 150 min after incubation is started. Following a similar layout as with the ROS induction assay, the present inventors subsequently assessed induction of Caspase 3/7 activity following a 1 hour challenge with 2.5 uM A23187. Readings from Caspase 3/7 activation were taken at 80 and 150 minutes post-substrate addition and readouts were compared to non-supplemented controls.

[4] = test system: iPSC-derived ocular stem cells (ABC-101); experiment: ROS assay after TBHP challenge of ocular stem cells; format: cell-based; conditions: 550 uM TBHP challenge, ROS at 3 hours and 4 hours, normalized to challenged wells without peptide, FIGS. 7-8
From the text: To assess the cytoprotective properties of the α-MSH peptide analogues in-vitro the present inventors tested their modulatory influence on reactive oxygen species (ROS) production and caspase activation in response to cellular stress. For these in-vitro challenge assays, the present inventors induced cellular stress using tert-Butyl hydroperoxide (TBHP) or calcium ionophore (A23187), compounds which are respectively known to induce oxidative and metabolic stress. Oxidative stress was correlated to an increase of ROS within cells. […] Within the current assays, the present inventors monitored ROS accumulation and subsequent caspase activity as readouts of cellular stress and eventual cell death. […] Both the ROS and caspase readouts were obtained by using commercially available reagent kits, which are based on a fluorescent indicator readout for each metric per the supplier's protocol. […] Since the assay uses a cell-permeable dye, the readout can be performed within live cells and results in a red fluorescent signal (Ex/Em=520/605 nm), which is correlated to the amount of accumulated ROS within each well. Within the present protocol, the inventors read ROS accumulation over time, starting from 1 hour after incubation up to 4 hours post-incubation. The ocular stem cells (ABC-101 cells) were challenged with 550 uM of TBHP and ROS production was assessed over several hours. […]

Solubility (Solubility comparison): >5000 µg/mL
SMILES: CCCC[C@H](NC(C)=O)C(=O)N[C@H]1CCCCn2cc(nn2)C[C@@H](C(N)=O)NC(=O)[C@H](Cc2c[nH]c3ccccc23)NC(=O)[C@H](CCCNC(=N)N)NC(=O)[C@@H](Cc2ccccc2)NC(=O)[C@H](Cc2cnc[nH]2)NC1=O [Peptide K110, Ac-Nle-[Lys(N3)-His-DPhe-Arg-Trp-Pra]-NH2] (Ac-[Nle][Lys(N3)]H[dF]RW[Pra]-NH2; triazole 2-7)

aqueous humor (AH) concentrations with repeated dosing [1]: increase with repeated dosing | level at 24 h (in vivo; K173 Concentrations (ng/mL) in Rabbit Aqueous Humor OD Sample): 3.34 ng/mL | level at 24 h (in vivo; K173 Concentrations (ng/mL) in Rabbit Aqueous Humor OS Sample): 3.94 ng/mL
SMILES: CCCC[C@H](NC(=O)c1cc(O)cc(O)c1)C(=O)N[C@H]1CCCCn2cc(nn2)C[C@@H](C(N)=O)NC(=O)[C@H](Cc2c[nH]c3ccccc23)NC(=O)[C@H](CCCNC(=N)N)NC(=O)[C@@H](Cc2ccc(F)cc2)NC(=O)[C@H](Cc2c[nH]cn2)NC1=O [Peptide K173, HyBA-Nle-[Lys(N3)-His-Dphe(4-F)-Arg-Trp-Pra]-NH2] ({Benzoyl(3,5-(OH)2)}-[Nle][Lys(N3)]H[dPhe(4-F)]RW[Pra]-NH2; triazole 2-7)
levels after 24 hours [1]: measurable levels were detected after 24 hours in all dose groups | ocular surface retention and Tmax ([1]; topical or ocular): prolonged ocular surface retention and Tmax | wound healing (rate of wound closure, corneal flat mount) ([2]; 3 animals per group, FIGS. 12A, 12B): enhanced wound healing | corneal edema (corneal stromal thickness by OCT) ([2]; topical 1 mg/ml or 5 mg/ml QD or BID, FIG. 11): decreased corneal edema

SMILES: CCCC[C@H](NC(=O)c1cc(O)cc(O)c1)C(=O)N[C@H]1CCCCn2cc(nn2)C[C@@H](C(N)=O)NC(=O)[C@H](Cc2c[nH]c3ccccc23)NC(=O)[C@H](CCCNC(=N)N)NC(=O)[C@@H](Cc2ccccc2)NC(=O)[C@H](Cc2c[nH]cn2)NC1=O [Peptide K174, HyBA-Nle-[Lys(N3)-His-DPhe-Arg-Trp-Pra]-NH2] ({Benzoyl(3,5-(OH)2)}-[Nle][Lys(N3)]H[dF]RW[Pra]-NH2; triazole 2-7)
percent increase in caspase activation over control ([3]; 100 nM peptide, A23187 challenge, FIG. 9): lowest percent increase over control | Caspase 3/7 activity (protection against apoptosis induction) ([3]; 1 hour challenge with 2.5 uM A23187, readings at 80 and 150 minutes, vs non-supplemented controls, FIGS. 9-10): highest degree of protection against apoptosis induction | protection against ROS accumulation [4]: protective against ROS accumulation down to the low pM range

Source: patent publication US20260151434A1, “COMPOSITIONS FOR THE TREATMENT OF DISEASE” (priority 2022, published 2026)
